The structures appear in SMILES notation.

One experiment has as its system 735 anti PSA antibody. Briefly: Screening ELISA of the NIH Clinical Collection 1 Library for organic PSA mimetics. The class given is binding. Particulars: 10 µM of library compound pre-incubated with 735 antibody; repeated three times. The method, then:
To identify organic PSA mimetics the NIH Clinical Collection 1 Library was screened. PSA mimicking peptide (NTHTDPYIYPIDC; Mehanna et al., (2009); Brain 132 (Pt 6): 1449-1462.) coupled to catalase (3 µg/ml; 25 µl/well) was immobilized on the surface of 384-well flat bottom microtiter plates with high binding surface (Corning Life Sciences, Amsterdam, The Netherlands). Wells were washed with […], blocked with 1% bovine serum albumin for 1 h at room temperature. 735 anti PSA antibody (0.1 µg/ml; 25 µl/well) was incubated with PBS, PBS containing DMSO solvent control or PBS containing 10 µM of the organic compounds from the library for 1 h at room temperature and then added to the wells coated with […] coupled to catalase. As control for positive competition, 735 antibody was incubated with the PSA mimicking peptide (10 µM). After incubation for 1 h, wells were washed 10 times with PBS containing 0.05% Tween-20 (PBST), HRP-coupled secondary antibody (1:5,000 in PBS) was added for 1 h and after 10 more washes with PBST, binding of antibody was visualized by incubating wells with 25 µl of 0.4 mg/ml o-phenylenediamine dihydrochloride (Thermo Scientific) for 15 min. The reaction was stopped by addition of 25 µl 2.5 M H2SO4 and quantified using an ELISA reader (EnVision with Plateworks software, Perkin Elmer, Hamburg, Germany). […]

The subject of experiment [1] is PSA specific monoclonal antibody 735. Briefly: Surface plasmon resonance competition experiment (BIAcore 3000). It is filed as binding. The settings on record: compared to antibody not mixed with tegaserod; antibody 10 nM pre-incubated with 1-30 µM compound; Figure 1B. The method, then:
The running buffer was phosphate-buffered saline (PBS, pH 7.4). PSA mimicking peptide coupled to catalase was covalently immobilized to CM5 sensor chips (carboxymethyl dextran; GE Healthcare Europe GmbH) via primary amino groups, using standard coupling protocols (Karlsson et al. (1991); J. Immunol. Methods 145 (1-2): 229-240. In brief, the sensor surface was activated by a 7-min pulse of 0.2 M N-ethyl-N-(3-dimethylaminopropyl) carbodiimide and 50 mM N-hydroxysuccinimide. The PSA peptide solution (10 nM in 10 mM sodium acetate, pH 5.2) was then injected for 5-10 min. Ethanolamine (1 M, pH 8.5) was used to block remaining activated carboxyl groups. Ligand densities of 100-150 fmol/mm^2 were reached. Immobilized control peptide (10 nM PSA scrambled peptide coupled to catalase) was used as a reference surface. […] The data were analyzed using the BIAevaluation 3.0 software. All sensorgrams were corrected for background and bulk refractive index by subtraction of the reference.
To confirm that tegaserod binds specifically to antibody 735, a competition experiment was performed. First, the PSA specific monoclonal antibody 735 (10 nM) was pre-incubated for 1 h at room temperature with different molar concentrations (1, 2, 5, 8, 15 and 30 µM) of tegaserod or control compound. Then the antibody/organic compound solutions were injected ([…]) to the PSA peptide-coupled chip. […]
For orientation: Surface plasmon resonance follows binding to a sensor surface in real time, without labels.

Experiment [2] has as its system murine cerebellar granule neurons (cGNs), Schwann cells, and motoneurons. As to the kind of experiment: In vitro neurite/process outgrowth, statements covering all cell types. It is filed as cell-based, C57BL/6J mice. On the procedure: (§1) Primary cultures of cerebellar neurons or Schwann cells were prepared from cerebellum or dorsal root ganglia of 7-day-old C57BL/6J mice as described in Mehanna et al. (2009), Brain, 132 (Pt 6): 1449-62 and Loers et al. (2005), J. Neurochem., 92(6): 1463-76. Motoneurons were prepared from E14 C57BL/6J mice as described in Simova et al. (2006), Ann. Neurol., 60(4): 430-437. In brief, 48-well plates were coated with 0.01% poly-L-lysine (PLL) or poly-L-ornithine (PLO) overnight at 4°C, washed twice with water and air-dried. Directly before use, plates were washed twice with PBS, and Schwann cells, cerebellar neurons (PLL) or motoneurons (PLO) were seeded at a density of 1.25 x 10^4 (Schwann cells and motoneurons) or 2.5 x 10^4 cells (cerebellar neurons) per well in 250 µl of corresponding serum-free culture medium. Soluble organic compounds were added to the culture 1 h after seeding in increasing concentrations. After maintenance for 24 h at 37°C, cells were fixed with 2.5% glutaraldehyde and stained with 1% methylene blue/toluidine blue in 1% borax. Morphological quantification of neurite or process lengths was performed as described in Mehanna et al. (2009), see above. Schwann cell processes and neurites of cerebellar neurons with a length of at least one cell body diameter were counted and total neurite or process length per cell was determined by counting 50 cells in each of two wells per experiment. At least three independent experiments were performed for each culture. Also, the activity of tegaserod with the PSA peptide mimic and the bacterial PSA analogue, colominic acid, on neurite and process extension experiments was compared.

Experiment [3] deals with cerebellar granule neurons (cGNs). As to the kind of experiment: In vitro neurite outgrowth of cerebellar granule neurons. It is filed as cell-based, C57BL/6J mice. Particulars: compared to control; Figure 2C, D. The method, then: as §1
Experiment [4] concerns regenerated femoral nerves. Briefly: Histology of the regenerated femoral nerve. It is filed as in vivo, C57BL/6J mice. Particulars: 15 weeks; for myelinated axons: vehicle control 78%; for average number of axons within regenerated nerves: vehicle control 432, unsevered 608. The method, then: Tegaserod was evaluated in a 2 mm femoral nerve defect of 12-week old C57BL/6J mice as previously described in Mehanna et al. (2009), see above. Briefly, mice were anesthetized and the femoral nerve of the left rear leg exposed. The nerve was bis-sected 3 mm proximal to the branching of the saphenous and motor branches, and the nerve ends were sutured 0.5 mm into a 3 mm polyethylene conduits with 0.58 mm inner diameter (Becton Dickinson), leaving an overall gap length of 2 mm. Conduits were filled with PuraMatrix peptide hydrogel (Becton Dickinson 354250) using 2x PBS as the gelation stimulant. Tegaserod was dissolved in the 2x PBS at concentrations of 500 nM and 5,000 nM, resulting in final concentrations of 250 nM and 2,500 nM once the PBS was combined 1:1 v/v with the PuraMatrix.
At the end of the recovery period, femoral nerves were fixed and histology was performed to assess nerve morphology within the regenerated region 1 mm into the 2 mm gap. Animals were perfused with 4% paraformadehyde and explanted nerves were post-fixed in osmium tetroxide and embedded in resin. One and 2 µm thick sections were cut into the center of the regenerated nerve and sections were stained with 1% toluidine blue and 1% borax. Sections were imaged with a Zeiss Axiocam, using 20x, 40x, and 100x objectives and AxioVision imaging software. ImageJ software was used to calculate total nerve area, number of axons, % of myelinated axons, and g-ratio as described Mehanna et al. (2009), see above.

In the case of `[H]/N=C(/NCCCCC)N/N=C/c1c[nH]c2ccc(OC)cc12` [tegaserod, (E)-but-2-enedioic acid; 1-[[(Z)-(5-methoxyindol-3-ylidene)methyl]amino]-2-pentylguanidine], in the experiment with 735 anti PSA antibody, the “identification as organic compound that could potentially mimic PSA” value was “could potentially mimic PSA”. For the same compound, the “disruption of the capability of mAb 735 to bind to the PSA peptide mimic bound to the chip surface” value in experiment [1] came out at 80%. In experiment [2] (Mus musculus, Neuron, 24 h, dose-response curve, Figure 2A, read-out: concentration at which an effect on neurite and process extension was shown), the minimal effective concentration was 0.001 µM. Besides, the “concentration of optimal effect on neurite and process extension” value in experiment [2] (all cell types, Figure 2A) was 100 nM. The “concentration of maximal stimulatory effects” value in experiment [2] (neurite and process extension of neurons and Schwann cells) was in the range of 10 to 250 nM. Besides, in experiment [2] (neurons and Schwann cells), the “effect of overdosing / higher concentrations (in words)” value is given as “the stimulatory effect was reduced or even abolished”, the “times more effective than colominic acid in stimulating process formation” value is recorded as “about 20 times” and the “times more effective than the PSA mimicking peptide in stimulating process formation” value is listed as “about 200 times”. The “effect on neurite outgrowth of cGNs (in words)” value in experiment [3] is listed as “significantly enhance neurite/process outgrowth compared to control”. Further, in experiment [4] (250 nM), the myelinated axons worked out at 88% and the “average number of axons within regenerated nerves” value came to 589 axons. In experiment [4] (2,500 nM), the myelinated axons is 83% and the “average number of axons within regenerated nerves” value was found to be 434 axons.

Source of the values: patent publication EP2724723A1, “Tegaserod for use in the treatment of nerve injuries” (Universitätsklinikum Hamburg-Eppendorf, priority 2012, dated 2014).
